The values that follow come from patent US5422126A, “Halogen compositions for water treatment and method of preparation thereof” (priority 1993, dated 1995).

Data set [1] is described as follows: Water solubility of solid halogenated hydantoins and amount of halogen dissolved in a saturated solution. The conditions noted are these: for Amount of halogen dissolved in saturated solution: saturated solution in water.
The next data set is described as follows: physchem. The note with it: water.

Each structure is given as a SMILES string. In brackets after ≈: the same amount, converted by molar mass.

What is called solubility is how much of the substance goes into solution per volume.

For the molecule `CC1(C)C(=O)N(Cl)C(=O)N1Br` [Bromo-chlorodimethylhydantoin, bromochlorodimethylhydantoin], the “Amount of halogen dissolved in saturated solution” value in data set [1] was 825 mg/L as Cl2. The Water solubility in data set [1] (solid halogenated hydantoin in water) is given as 0.15%. With `CC1(C)C(=O)N(Br)C(=O)N1Br` [Dibromodimethylhydantion, 1,3-dibromo-5,5-dimethylhydantoin], in data set [1], the “Amount of halogen dissolved in saturated solution” value is reported as 542 mg/L as Cl2. In addition, the solubility in data set [1] (water) was 1100 µg/mL (≈ 3.85 mM). Take `CC1(C)C(=O)N(Cl)C(=O)N1Cl` [Dichlorodimethylhydantoin, dichlorodimethylhydantoin]: in the data set “physchem”, the solubility turned out to be 2100 µg/mL (≈ 10.7 mM).
